# Tests used:
# [1] = test system: unselected cord blood mononuclear cell population; assay: Lymphocyte subsets (FACS) in unselected cord blood mononuclear cell cultures; type: cell-based, human; conditions: three weeks
# Experimental: 1. Total mononuclear cell fraction was cultured in culture bags (American Fluoroseal Co. Gaithersburg, Md., USA), T-Flasks or 24 well plates at a concentration of 0.5−2×10^6 cells/ml in MEMα comprising 10% FCS or CellGro SCGM (Cell Genix) comprising 5-10% Human Serum/LiforCell® FBS Replacement (Lifeblood Products) containing the following human recombinant cytokines:, interleukin-2 (IL-2) (5-50 ng/ml), interleukin-15 (IL-15), interleukin7 (IL7), interleukin 21 (IL21), FLT-3 or SCF or FLT3 and SCF (Perpo Tech, Inc., Rocky Hill, N.J., USA), with or without OKT-3 (10-50 ng/ml), with or without nicotinamide (0.5-10 mM), and incubated at 37° C. in a humidified atmosphere of 5% CO2 in air. When OKT-3 was used in the culture the cultures were centrifuged after 5-7 days and the cells were resuspended with the same medium excluding the OKT-3. All cultures are topped weekly or twice a week with the same volume of fresh medium containing the growth factors with or without nicotinamide. For counting, the cells were stained with trypan blue. At various time points, samples were taken to assay the relative fractions of NK cells, CD56+CD3−, CD56+CD3+, CD34+CD56+, CD56+CD16+ and/or CD56+ NKG2A cells. Cell morphology was determined on cytospin (Shandon, Pittsburgh, Pa., USA) prepared smears stained with May-Grunwald/Giemsa solutions.
# The cells were washed with a PBS solution containing 1% BSA, and stained (at 4° C. for 30 min) with fluorescein isothiocyanate (FITC)- or phycoerythrin (PE)-conjugated antibodies or allophycocyanin (APC). The cells were then washed in the above buffer and analyzed using a FACScalibur® flow cytometer (Becton Dickinson, San Jose, Calif., USA). The cells were passed at a rate of up to 1000 cells/second, using a 488 nm or 661 nm argon laser beam as the light source for excitation. Emission of 10^4 cells was measured using logarithmic amplification, and analyzed using the CellQuest software (Becton Dickinson). Cells stained with FITC, PE and APC-conjugated isotype control antibodies were used to determine background fluorescence. […]
# [2] = test system: peripheral blood NK (T-cell depleted) cells; assay: Expansion of CD3+ or CD3+/CD19+ depleted peripheral blood NK cells in culture bags; type: cell-based, human
# Experimental: For depletion procedure, total nuclear cells from umbilical cord blood (CB), bone marrow (BM) or peripheral blood (PB) cells were layered on a Ficoll-Hypaque gradient (1.077 g/mL; Sigma), and centrifuged at 800×g for 30 minutes for separation of the mononuclear cells. The cells in the interface layer were collected and washed three times in phosphate-buffered saline (PBS) (Biological Industries, Israel) containing 0.5% HSA. Optionally, cells are not separated on the Ficoll-Hypaque gradient but washed three times in phosphate-buffered saline (PBS) (Biological Industries) containing 0.5% HSA (“total mononuclear fraction”). CD3 cells were depleted using the CD3 cell isolation kit (Miltenyi Biotec Bergisch, Gladbach, Germany) and the entire CD3 negative cell fraction was cultured. Optionally, CD19 cells were also depleted using the CD19 cell isolation kit (Miltenyi Biotec Bergisch, Gladbach, Germany) and the CD3/CD19 negative (CD3/CD19 depleted) cell fraction was cultured. Optionally, RosetteSep Human CD3+ Cell Depletion Cocktail (Stem Cell Technologies, RosestteSep, Cat. No. 15661)] was used for CD3 depletion and the entire CD3 negative cell fraction was cultured. After negative depletion the cells were counted and characterized by FACS analysis.
# 3. CD3+ depleted, or CD3+/CD19+ depleted mononuclear cell fraction from PB, BM and CB were cultured in culture bags, T-Flasks or 24 well plates at a concentration of 1−1000×10^4 cells/ml in MEMα/10% FCS or CellGro SCGM (Cell Genix)/5% Human Serum/LiforCell® FBS Replacement (Lifeblood Products) containing the following human recombinant cytokines: interleukin-2 (IL-2) or and interleukin-15 (IL-15), with or without FLT-3 or SCF or FLT3 and SCF (5-50 ng/ml) (Perpo Tech, Inc., Rocky Hill, N.J., USA), all combinations, with or without nicotinamide and incubated at 37° C. in a humidified atmosphere of 5% CO2 in air. The cultures were topped weekly or twice a week with the same volume of fresh medium containing growth factors with or without nicotinamide. Cultures were later supplemented once or several times a week with IL-2 and or IL-2 and IL-15. To estimate number of cells in culture, cell samples were counted following staining with trypan blue. At various time points, samples are taken to FACS analysis to assay the relative fractions of NK cells, CD56+CD3−, CD56+CD3+, CD34+CD56+, CD56+CD16+ and/or CD56+ NKG2A cells.
# In order to calculate the number of NK cells on day 0, the total number of cells seeded on day 0 was multiplied by the percent of CD56+/CD3− cells measured by the FACS on day 0.
# To determine total number of cells on day 7, 14 and 21, the cell count/ml was multiplied by the volume of the culture medium. In order to determine the number of NK cells in culture, the total number of cells in culture was multiplied by the percent of CD56+/CD3− cells measured with the FACS on days 7, 14 or 21. To measure fold expansion, total number of NK cells on days 7, 14 and 21 was divided by total number of NK cells seeded in culture on day-0.
# [3] = 0.5, 1, 2.5 and 5 mM nicotinamide
structure (smiles),measurement,setting,value
NC(=O)c1cccnc1 [nicotinamide],proliferation in culture of CD56+/CD3- NK cells,[1]; [3],dose-dependent nicotinamide-induced enhancement of proliferation
same,proliferation in culture of CD56+/CD45+ cells,[1]; [3],dose-dependent nicotinamide-induced enhancement of proliferation
same,CD3+ CD56- T cell growth,"[1]; 0.5 to 5 mM nicotinamide, dose-dependent",inhibition
same,NK expansion relative to control cultures without nicotinamide,"[2]; 2.5 mM and 5 mM nicotinamide, after 14 and 21 days, IL-2 or IL-2+IL-15",significantly higher
same,CD56+CD3- NK cell proliferation,"[2]; 2.5 mM and 5 mM, 21 days, seeding 2-, 5-, and 10x10^5 cells",profound enhancement
same,NK (CD56+CD3-) cells among cells in culture,"[2]; 2-3 weeks in culture with nicotinamide, seeded 2-10% NK cells",more than 90%
same,non-NK cell fraction vs control cultures,"[2]; 2.5 and 5 mM nicotinamide, 21 days post seeding",smaller
same,NK cell proliferation from day 14 to day 21,[2]; grown with nicotinamide,continue to proliferate
